Laboratory results taken from the NIST ThermoML archive (doi:10.1016/j.jct.2016.05.006).
Where “and” joins values, the source holds several entries; their conditions need not be identical. Equal entries are not always repeated.

Conditions: Liquid, Vibrating tube method

OCC(O)CO [glycerol]
mass density
Conditions | 298.15 K | 303.15 K | 308.15 K | 313.15 K | 318.15 K | 328.15 K | 338.15 K | 348.15 K
100 kPa | 1258.4 kg/m3 and 1259.1 kg/m3 | 1255.7 kg/m3 | 1252.9 kg/m3 and 1253 kg/m3 | 1250.1 kg/m3 | 1247 kg/m3 | 1240.9 kg/m3 | 1234.8 kg/m3 | 1228.7 kg/m3
5000 kPa | 1260.7 kg/m3 and 1260.6 kg/m3 | 1257.8 kg/m3 | 1254.9 kg/m3 and 1254.6 kg/m3 | 1251.8 kg/m3 | 1248.5 kg/m3 | 1242.5 kg/m3 | 1236.4 kg/m3 | 1230.4 kg/m3
10000 kPa | 1262.3 kg/m3 and 1262.1 kg/m3 | 1259.3 kg/m3 | 1256.3 kg/m3 and 1256.1 kg/m3 | 1253.4 kg/m3 | 1250.1 kg/m3 | 1244.1 kg/m3 | 1238.1 kg/m3 | 1232.1 kg/m3
15000 kPa | 1263.7 kg/m3 and 1263.6 kg/m3 | 1260.8 kg/m3 | 1257.9 kg/m3 and 1257.6 kg/m3 | 1254.9 kg/m3 | 1251.6 kg/m3 | 1245.6 kg/m3 | 1239.6 kg/m3 | 1233.6 kg/m3
20000 kPa | 1265.2 kg/m3 and 1265.1 kg/m3 | 1262.3 kg/m3 | 1259.4 kg/m3 and 1259.1 kg/m3 | 1256.4 kg/m3 | 1253.2 kg/m3 | 1247.2 kg/m3 | 1241.3 kg/m3 | 1235.3 kg/m3
25000 kPa | 1266.6 kg/m3 and 1266.5 kg/m3 | 1263.7 kg/m3 | 1260.8 kg/m3 and 1260.6 kg/m3 | 1257.9 kg/m3 | 1254.7 kg/m3 | 1248.8 kg/m3 | 1242.9 kg/m3 | 1237.1 kg/m3
